The target in series [1] is TrkC (Homo sapiens, UniProt Q16288). Kind of series: Inhibitory activity test for Trk kinases (γ-33P-ATP isotope test), TrkC. The following applies: 33P-ATP 10 μM, 2 h reaction; read-out: Kinase IC50 TrkC. The series is classed as biochemical. The protocol: (§1) Inhibitory Activity Test for Trk Kinases
(§2) In this experiment, the γ-^33P-ATP isotope test was used to test the inhibition effect of a compound on kinases TrkA, TrkB and TrkC, and the half maximal inhibitory concentration IC50 of the inhibitory activity of the compound on the enzymes was obtained.
(§3) A compound was dissolved in 100% DMSO to a particular concentration, and then the resulting solution was gradient-diluted by an automatic loading device to different concentrations of the test samples (DMSO dissolving solutions).
(§4) 3.1. The reaction substrate was diluted using the base reaction buffer;
(§5) 3.2. The kinase was added into the substrate solution and mixed gently and uniformly;
(§6) 3.3. The compounds of different concentrations diluted in 100% DMSO were added into the kinase solution using an automatic loading system, and incubated for 20 min at room temperature;
(§7) 3.4. ^33P-ATP (10 μM, 10 μCi/μl) was added at room temperature to initiate the kinase reaction, and the reaction was carried out for 2 h.
(§8) The reaction solution was subjected to an ion exchange filtration system to remove unreacted ATP and the generated ADP ions during the reaction. Then, the radiometric quantity of ^33P isotope in the substrate was detected.
(§9) The kinase activity in the system with the addition of the inhibitors of different concentrations was calculated from the radiometric quantity, to obtain the inhibitory effect of the compounds with different concentrations on the kinase activity. Fitting was performed using graphpad prism to obtain IC50 values of the compounds for inhibition.

The target in series [2] is TrkA (Homo sapiens, UniProt P04629). Kind of series: Inhibitory activity test for Trk kinases (γ-33P-ATP isotope test), TrkA. It counts as biochemical. The following applies: 33P-ATP 10 μM, 2 h reaction; read-out: Kinase IC50 TrkA. As for the experimental part:
as §1, §2, §3, §4, §5, §6, §7, §8, §9

Series [3] deals with TrkB (Homo sapiens, UniProt Q16620). Nature of the series: Inhibitory activity test for Trk kinases (γ-33P-ATP isotope test), TrkB. It counts as biochemical. The following applies: 33P-ATP 10 μM, 2 h reaction; read-out: Kinase IC50 TrkB. As for the experimental part: as §1, §2, §3, §4, §5, §6, §7, §8, §9
TrkB, sequence (Q16620 32-822, species assumed): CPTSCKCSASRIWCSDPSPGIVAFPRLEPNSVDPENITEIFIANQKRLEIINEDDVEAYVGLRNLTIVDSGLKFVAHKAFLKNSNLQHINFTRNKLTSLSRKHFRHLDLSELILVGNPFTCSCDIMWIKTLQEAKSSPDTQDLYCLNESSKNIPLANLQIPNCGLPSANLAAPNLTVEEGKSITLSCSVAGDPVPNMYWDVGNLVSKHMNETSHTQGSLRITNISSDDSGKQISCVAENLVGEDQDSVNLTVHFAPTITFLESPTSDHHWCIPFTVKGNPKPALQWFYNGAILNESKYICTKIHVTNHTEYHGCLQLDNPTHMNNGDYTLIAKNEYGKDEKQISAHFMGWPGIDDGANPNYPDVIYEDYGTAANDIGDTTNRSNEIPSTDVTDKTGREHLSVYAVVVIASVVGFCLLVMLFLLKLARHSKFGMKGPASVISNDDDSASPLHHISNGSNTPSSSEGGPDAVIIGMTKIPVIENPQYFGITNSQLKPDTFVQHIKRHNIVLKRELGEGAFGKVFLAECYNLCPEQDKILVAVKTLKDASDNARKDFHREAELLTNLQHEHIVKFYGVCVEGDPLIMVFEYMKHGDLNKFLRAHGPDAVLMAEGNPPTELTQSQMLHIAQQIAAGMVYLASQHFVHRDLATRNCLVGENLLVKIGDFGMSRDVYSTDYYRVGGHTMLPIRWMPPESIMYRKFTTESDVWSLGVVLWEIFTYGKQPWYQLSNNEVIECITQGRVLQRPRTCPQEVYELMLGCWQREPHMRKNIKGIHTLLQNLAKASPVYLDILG
For series [4], the system named is BaF3-tel-NTRK1. Kind of series: Growth inhibition test, CellTiter-Glo, tel-NTRK1-BaF3 cells. It counts as cell-based. The following applies: 72 hours incubation, read-out: Cell GI50 BaF3-tel-NTRK1. As for the experimental part: Growth Inhibition Test for Tel-NTRK1-BaF3 and BaF3-LMNA-NTRK1 Cells
In this experiment, the CellTiter-Glo cell proliferation fluorescence assay was used to test the growth inhibitory effect of a compound on tel-NTRK1-BaF3 and BaF3-LMNA-NTRK1 transgenic cells, and the half maximal growth inhibitory concentration GI50 of the compound on the cells was obtained.
A compound to be tested was dissolved in DMSO to formulate 10 mM of a mother solution. The mother solution was 3× diluted to 10 mM, 3.333 mM, 1.111 mM, 0.370 mM, 0.123 mM, 0.041 mM, 0.014 mM, 0.005 mM, and 0.002 mM. The prepared solutions were each stored in a 0.5 ml sterilized dorft tube (Corning, USA). In addition, an equal volume of DMSO solvent was used as a blank control. With 10 concentration gradients, the plate was stored in vacuum at −20° C.
The tel-NTRK1-BaF3 and BaF3-LMNA-NTRK1 cell lines were cultured with RPMI 1640 (Corning, N.Y., USA)+10% fetal bovine serum (Gibico, Invitrogen, USA). After the cells were thawed, they were cultured for two generations to be tested.
Logarithmic growth phase cells (2000-2500 cells/well) were inoculated in a 12×8 96-well white opaque cell culture plate (Corning 3570, NY, USA) in a volume of 100 μL per well, and a drug was added to the cell plate (0.1 μL/well) at the final concentration of the compound of 10 μM, 3.3 μM, 1.1 μM, 0.37 μM, 0.12 IM, 0.04 μM, 0.014 IM, 0.005 μM, and 0.002 μM (0.4 uL of the drug solution was added to 400 ul of the cell homogenate, and then mixed uniformly, and the resulting mixture was added at 100 ul per well). The plate was incubated at 37° C. in a 5% CO2 incubator for 72 hours, and then 20 μL CellTiter-Glo cell proliferation fluorescence assay reagent was added. The plate was allowed to stand for 10 min, and read in the Envision Plate-Reader. […]
A corresponding […] value RLU of each well was obtained by reading in the Envision Plate-reader. […]
The biochemical activity of the compounds of the present invention was determined by the above experiment, and the measured GI50 values are shown in table 2: […]
On the technique in general: In ATP-based viability assays light output follows the ATP content of the culture.

A short description of series [5]: Metabolic stability in human liver microsomes. The series is classed as in vitro ADME. The following applies: for Remaining % (60 min) / microsomal CLint at 1 μmol/L: human liver microsomes 0.5 mg/mL, compound 1 μmol/L; for Remaining % (60 min): 37° C.; for Negative control Remaining % (60 min): human liver microsomes, negative control incubation; for half-life at 1 μmol/L: human, liver microsomes; for half-life at 1 μmol/L / microsomal CLint at 1 μmol/L: pH 7.4; for microsomal CLint at 1 μmol/L: read-out: Clint (μL/min/mg protein). The protocol: Testing on Metabolic Stability of Compounds in Human Liver Microsomes
The total volume of an incubation system was 250 μL, and 50 mmol/L PBS buffer (pH=7.4) was used to prepare incubation solutions of liver microsomes from various species with a protein concentration of 0.5 mg/mL. Before the start of the incubation, 2.5 μL of a 100 μmol/L compound to be tested was mixed with 197.5 μL of the above incubation solution, pre-incubated in a 37° C. water bath for 5 min, and then added with a 50 μL reducing coenzyme II solution (5 mmol/L) that was likewise pre-incubated for 5 min to start the reaction (in the reaction system, the protein content of liver microsomes from various species was 0.5 g/L, and the final concentration of the compound to be tested was 1 μmol/L), incubated in a 37° C. water bath with shaking, and taken out at 0, 5, 15, 30, and 60 min. 600 μL of a methanol solution of mixed positive and negative internal standards with internal standards Terfenadine (positive ion internal standard, 25 ng/mL) and Tolbutamide (negative ion internal standard, 50 ng/mL) was immediately added to terminate the reaction. The incubation solution after termination was shaken for 2 min and centrifuged (4° C., 16000 r/min) for 10 min, and the supernatant was taken for LC-MS/MS detection to quantitatively analyze the remaining amount of the parent drug. (DMSO<0.1%).
The concentration of the compound at 0 min incubation was regarded as 100%, and the concentrations at other incubation time points were converted into the remaining percentages. The natural logarithm of the remaining percentage at each time point was linearly regressed against the incubation time, and the slope k was calculated. According to the formula T1/2=−0.693/k, the in vitro half-life was calculated. Clearance in liver microsomes (CLint (μL/min/mg protein)=Ln (2)*1000/T1/2 (min)/Protein Conc(mg/ml)).
Test data of metabolic stability of the compounds of the present invention in human liver microsomes are listed in detail in table 3: […]

TrkA, sequence (P04629 33-796, species assumed): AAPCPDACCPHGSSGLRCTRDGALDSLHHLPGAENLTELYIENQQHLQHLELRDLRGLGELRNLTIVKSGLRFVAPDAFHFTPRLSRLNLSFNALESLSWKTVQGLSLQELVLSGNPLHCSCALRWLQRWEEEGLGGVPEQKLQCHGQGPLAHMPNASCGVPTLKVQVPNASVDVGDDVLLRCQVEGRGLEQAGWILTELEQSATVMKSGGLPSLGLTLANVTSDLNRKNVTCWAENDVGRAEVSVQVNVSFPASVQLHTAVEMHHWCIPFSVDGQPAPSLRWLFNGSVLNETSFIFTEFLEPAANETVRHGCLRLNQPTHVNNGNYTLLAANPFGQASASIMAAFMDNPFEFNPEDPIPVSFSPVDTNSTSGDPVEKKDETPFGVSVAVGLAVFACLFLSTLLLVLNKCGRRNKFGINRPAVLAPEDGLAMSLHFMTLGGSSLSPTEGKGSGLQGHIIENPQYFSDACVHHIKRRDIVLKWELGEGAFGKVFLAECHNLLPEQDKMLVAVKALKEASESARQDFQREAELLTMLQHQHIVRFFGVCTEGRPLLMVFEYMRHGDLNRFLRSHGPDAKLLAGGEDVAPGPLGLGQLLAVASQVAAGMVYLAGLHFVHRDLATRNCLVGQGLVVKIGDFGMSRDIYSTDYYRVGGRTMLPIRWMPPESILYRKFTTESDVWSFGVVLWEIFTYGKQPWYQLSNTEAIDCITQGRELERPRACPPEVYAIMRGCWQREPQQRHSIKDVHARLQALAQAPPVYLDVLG
TrkC, sequence (Q16288 32-839, species assumed): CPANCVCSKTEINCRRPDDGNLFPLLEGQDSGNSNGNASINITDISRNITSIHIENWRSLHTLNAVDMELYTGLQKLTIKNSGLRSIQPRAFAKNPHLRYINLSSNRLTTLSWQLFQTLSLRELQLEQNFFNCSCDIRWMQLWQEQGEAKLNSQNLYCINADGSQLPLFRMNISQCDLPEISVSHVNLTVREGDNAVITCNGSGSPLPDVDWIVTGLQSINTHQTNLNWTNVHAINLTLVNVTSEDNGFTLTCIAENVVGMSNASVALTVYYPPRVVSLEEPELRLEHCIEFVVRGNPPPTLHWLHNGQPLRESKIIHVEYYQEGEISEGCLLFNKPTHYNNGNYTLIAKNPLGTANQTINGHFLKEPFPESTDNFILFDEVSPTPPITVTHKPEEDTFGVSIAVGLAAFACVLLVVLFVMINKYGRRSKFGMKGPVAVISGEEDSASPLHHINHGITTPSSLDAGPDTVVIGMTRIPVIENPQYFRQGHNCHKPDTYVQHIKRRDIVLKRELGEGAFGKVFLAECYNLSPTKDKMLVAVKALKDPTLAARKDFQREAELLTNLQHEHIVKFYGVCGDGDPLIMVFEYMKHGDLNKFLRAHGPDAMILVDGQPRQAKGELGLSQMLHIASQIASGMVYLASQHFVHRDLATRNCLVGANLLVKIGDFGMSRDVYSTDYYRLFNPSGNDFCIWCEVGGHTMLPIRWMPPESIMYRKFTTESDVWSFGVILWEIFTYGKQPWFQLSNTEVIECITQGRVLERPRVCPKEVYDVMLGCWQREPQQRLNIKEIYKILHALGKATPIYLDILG

In the case of `CC1Cc2ncc(F)cc2[C@H]2CCCN2c2ccn3ncc(c3n2)C(=O)NN1C1CC1` (single isomer, unassigned) [Example 3a, (1^3E,1^4E,2^2R,5R or S)-6-cyclopropyl-3^3-fluoro-5-methyl-6,7-diazepine-1(5,3)-pyrazolo(1,5-a]pyrimidine-3(3,2)-pyridine-2(1,2)-pyrrolidine cyclooctane-8-one], the IC50 in series [1] came to 0.46 nM; in series [2], 2.27 nM; in series [3] it was 1.58 nM.
The corresponding values for `CC1Cc2ncc(F)cc2[C@H]2CCCN2c2ccn3ncc(c3n2)C(=O)NN1C1CC1` (single isomer, unassigned) [Example 3b, (1^3E,1^4E,2^2R,5R or S)-6-cyclopropyl-3^5-fluoro-5-methyl-6,7-diazepine-1(5,3)-pyrazolo(1,5-a]pyrimidine-3(3,2)-pyridine-2(1,2)-pyrrolidine cyclooctane-8-one] are 0.38 nM, 2.16 nM and 1.13 nM.
Taken in the same sequence, the figures for `CC1Cc2ncc(F)cc2[C@H]2CCCN2c2ccn3ncc(c3n2)C(=O)NN1C` (single isomer, unassigned) [Example 7a, (1^3E,1^4E,2^2R,5R or S)-3^5-fluoro-5,6-dimethyl-6,7-diazepine-1(5,3)-pyrazolo[1,5-a]pyrimidine-3(3,2)-pyridine-2(1,2)-pyrrolidine cyclooctane-8-one] were 0.58 nM, 3.2 nM and 4.04 nM.
In the case of `CC1Cc2ncc(F)cc2[C@H]2CCCN2c2ccn3ncc(c3n2)C(=O)NN1C` (single isomer, unassigned) [Example 7b, (1^3E,1^4E,2^2R,5R or S)-3^5-fluoro-5,6-dimethyl-6,7-diazepine-1(5,3)-pyrazolo[1,5-a]pyrimidine-3(3,2)-pyridine-2(1,2)-pyrrolidine cyclooctane-8-one], the 50% inhibitory concentration (IC50) in series [1] was determined as 0.19 nM; in series [2], 2.62 nM; in series [3] it was 0.71 nM.
Take `CCN1NC(=O)c2cnn3ccc(nc23)N2CCC[C@@H]2c2cc(F)cnc2CC1C` (single isomer, unassigned) [Example 8a, (1^3E,1^4E,2^2R,5R or S)-3^5-fluoro-6-ethyl-5-methyl-6,7-diazepine-1(5,3)-pyrazolo[1,5-a]pyrimidine-3(3,2)-pyridine-2(1,2)-pyrrolidine cyclooctane-8-one]: the IC50 in series [1] amounted to 0.76 nM; in series [2], 4.01 nM; in series [3], 6.19 nM.
In the case of `CCN1NC(=O)c2cnn3ccc(nc23)N2CCC[C@@H]2c2cc(F)cnc2CC1C` (single isomer, unassigned) [Example 8b, (1^3E,1^4E,2^2R,5R or S)-3^5-fluoro-6-ethyl-5-methyl-6,7-diazepine-1(5,3)-pyrazolo[1,5-a]pyrimidine-3(3,2)-pyridine-2(1,2)-pyrrolidine cyclooctane-8-one], the concentration for half-maximal inhibition (IC50) in series [1] was determined as 0.34 nM; in series [2] it was 1.85 nM; in series [3], 1.35 nM.
`CC1Cc2ncc(F)cc2[C@H]2CCCN2c2ccn3ncc(c3n2)C(=O)NN1C1CC1` (stereo partly drawn) [Example 2, (1^3E,1^4E,2^2R)-6-cyclopropylamino-3^5-fluoro-5-methyl-6,7-diazepine-1(5,3)-pyrazolo[1,5-a]pyrimidine-3(3,2)-azabenzene-2(1,2)-pyrrolidine cyclooctane-8-one]: the GI50 in series [4] turned out to be 18 nM. Also, the half-inhibitory concentration (IC50) in series [2] was 3.81 nM.
In the case of `CN1CCc2ncc(F)cc2[C@H]2CCCN2c2ccn3ncc(c3n2)C(=O)N1` [Example 4, (R,1^3E,1^4E)-3^5-fluoro-6-methyl-6,7-diazepine-1(5,3)-pyrazolo[1,5-a]pyrimidine-3(3,2)-azabenzene-2(1,2)-pyrrolidine cyclooctane-8-one], in series [5], the “Remaining % (60 min)” value is listed as 88.39%, the “Negative control Remaining % (60 min)” value is reported as 108.0%, the half-life at 1 μmol/L was 217 min and the microsomal CLint at 1 μmol/L was determined as 6.4 µL/min/mg. The IC50 in series [2] turned out to be 12.6 nM.
With `CCN1CCc2ncc(F)cc2[C@H]2CCCN2c2ccn3ncc(c3n2)C(=O)N1` [Example 5, (R,1^3E,1^4E)-6-ethyl-3^3-fluoro-6,7-diazepine-1(5,3)-pyrazolo[1,5-a]pyrimidine-3(3,2)-azabenzene-2(1,2)-pyrrolidine cyclooctane-8-one], in series [2], the concentration for half-maximal inhibition (IC50) stood at 7.92 nM.
For `CC(C)N1CCc2ncc(F)cc2[C@H]2CCCN2c2ccn3ncc(c3n2)C(=O)N1` [Example 6, (R,1^3E,1^4E)-3^5-fluoro-6-isopropyl-6,7-diazepine-1(5,3)-pyrazolo[1,5-a]pyrimidine-3(3,2)-pyridine-2(1,2)-pyrrolidine cyclooctane-8-one], the results for the half-inhibitory concentration (IC50) in series [1], in series [2] and in series [3] were 0.29 nM, 2.09 nM and 0.83 nM, respectively.
Take `CC(C)CN1CCc2ncc(F)cc2[C@H]2CCCN2c2ccn3ncc(c3n2)C(=O)N1` [Example 9, (R,1^3E,1^4E)-3^5-fluoro-6-isobutyl-6,7-diazepine-1(5,3)-pyrazolo[1,5-a]pyrimidine-3(3,2)-pyridine-2(1,2)-pyrrolidine cyclooctane-8-one]: the values for the concentration for half-maximal inhibition (IC50) in series [1], in series [2] and in series [3] were 0.32 nM, 2.36 nM and 2.16 nM, respectively.
Regarding `C[C@@H]1CCc2ncc(F)cc2[C@H]2CCCN2c2ccn3ncc(c3n2)C(=O)N1` [LOXO-195, reference compound], in series [5], the “Remaining % (60 min)” value is recorded as 6.70%, the “Negative control Remaining % (60 min)” value is 102%, the half-life at 1 μmol/L is 15.3 min and the microsomal CLint at 1 μmol/L was 90.6 µL/min/mg.

In general, IC50 refers to the concentration that inhibits the measured activity by half. A word on the GI50: it is the concentration at which growth is held to half of that of the control. As a reminder, the half-life is the time needed for the level to fall by half in the phase considered.
